The target of series [1] is T1, Sp1 (Oryctolagus cuniculus, UniProt G1SL61).
T1 construct: from tissue; host or cells: rabbit reticulocyte lysate (in vitro translation system)
In words: anti-Sp1 immunoprecipitation of in vitro translated products. To be noted: for Sp1 binding: translated in rabbit reticulocyte lysate; for competition with PAS1B for Sp1 binding: in vitro translated PAS1B, peptide 10, 100 and 1000 pmol. The format is binding, rabbit. As for the experimental part:
(§1) Previously, it was shown that Myc displacement is mediated by the N-terminal HIF-1α (1-329), which competes with Myc for Sp1 binding in the MSH2 promoter (Koshiji et al, 2005). […] […] […] Of note, removal of part of the PAS-B from the C terminus (codon 299-329) destroyed Sp1 binding.
(§2) Immunoprecipitations and Western blot was performed essentially as described previously (Huang et al., 1998; Koshiji et al., 2005). In vitro translation and immunoprecipitations are described as before (Gu et al., 2001; Koshiji et al., 2005). […]

A further series concerns U-2 OS cells. In words: immunofluorescent staining of γ-H2AX foci (DNA DSBs). The format is cell-based. As for the experimental part:
To ascertain the functional relevance of NBS1 repression by hypoxia, the extent of DNA damage was assessed by immunofluorescent staining of γ-H2AX foci, a most sensitive method for quantifying DNA DSBs (Rogakou et al, 1998, 1999). […] Furthermore, results also show strikingly colocalized foci of γ-H2AX and 53BP1, the latter of which is known to interact with various DNA repair proteins including γ-H2AX in response to DSBs (Schultz et al, 2000). Thus, hypoxic cells experience DNA DSBs, presumably resulting from the NBS1 repression.
Immunofluorescence staining was performed essentially as described previously (Rogakou et al, 1999) with mouse anti-γ-H2AX antibody (Upstate) and rabbit anti-53BP1 (Novus Biologicals). Secondary antibodies were anti-mouse Alexa-546 and anti-rabbit Alexa-488 (Molecular Probes). Samples were mounted in antifade media, and were examined by fluorescent and laser-scanning confocal microscopy with a Nikon PCM 2000.

Series [2] has as its system NBS1. In words: NBS1 protein levels by immunoblot in U-2 OS cells expressing PAS-B variants. To be noted: forced expression in U-2 OS cells. The format is cell-based. As for the experimental part:
(§3) Immunoprecipitations and Western blot was performed essentially as described previously (Huang et al., 1998; Koshiji et al., 2005). In vitro translation and immunoprecipitations are described as before (Gu et al., 2001; Koshiji et al., 2005). The wheat germ extract system was purchased from Promega. λ protein phosphatase (New England Biolabs) and resveratrol (Sigma) with indicated concentrations were added to the in vitro translated products before immunoprecipitations.
U-2 OS cells were transfected with the Nucleofector system (Amaxa). Briefly, 1×10^6 cells were suspended in 100 μl pre-warmed Nucleofector Solution Kit V containing 2 μg plasmids. After electroporation the cells were transferred immediately into pre-warmed complete McCoy's 5A medium and seeded in 6-well plates. Cells were harvested 48 h after transfection.
(A western blot detects proteins with antibodies after separation by electrophoresis.)

Series [3] has as its system Sp1. Briefly: anti-Sp1 immunoprecipitation followed by immunoblotting in HeLa cells. The format is cell-based. The following applies: for Sp1 binding: expressed ectopically in HeLa cells. On the procedure: as §3
Series [4] has as its system Sp1. In words: anti-Sp1 immunoprecipitation of in vitro translated products. The format is binding, rabbit. The following applies: for Sp1 binding: produced in wheat germ extract (modification-deficient). As for the experimental part: as §1, §2
Another series deals with T2, recombinant PKD1 (Homo sapiens, UniProt Q15139).
T2 construct: purchased Upstate Biotechnology
T2 sequence (Q15139 1-912): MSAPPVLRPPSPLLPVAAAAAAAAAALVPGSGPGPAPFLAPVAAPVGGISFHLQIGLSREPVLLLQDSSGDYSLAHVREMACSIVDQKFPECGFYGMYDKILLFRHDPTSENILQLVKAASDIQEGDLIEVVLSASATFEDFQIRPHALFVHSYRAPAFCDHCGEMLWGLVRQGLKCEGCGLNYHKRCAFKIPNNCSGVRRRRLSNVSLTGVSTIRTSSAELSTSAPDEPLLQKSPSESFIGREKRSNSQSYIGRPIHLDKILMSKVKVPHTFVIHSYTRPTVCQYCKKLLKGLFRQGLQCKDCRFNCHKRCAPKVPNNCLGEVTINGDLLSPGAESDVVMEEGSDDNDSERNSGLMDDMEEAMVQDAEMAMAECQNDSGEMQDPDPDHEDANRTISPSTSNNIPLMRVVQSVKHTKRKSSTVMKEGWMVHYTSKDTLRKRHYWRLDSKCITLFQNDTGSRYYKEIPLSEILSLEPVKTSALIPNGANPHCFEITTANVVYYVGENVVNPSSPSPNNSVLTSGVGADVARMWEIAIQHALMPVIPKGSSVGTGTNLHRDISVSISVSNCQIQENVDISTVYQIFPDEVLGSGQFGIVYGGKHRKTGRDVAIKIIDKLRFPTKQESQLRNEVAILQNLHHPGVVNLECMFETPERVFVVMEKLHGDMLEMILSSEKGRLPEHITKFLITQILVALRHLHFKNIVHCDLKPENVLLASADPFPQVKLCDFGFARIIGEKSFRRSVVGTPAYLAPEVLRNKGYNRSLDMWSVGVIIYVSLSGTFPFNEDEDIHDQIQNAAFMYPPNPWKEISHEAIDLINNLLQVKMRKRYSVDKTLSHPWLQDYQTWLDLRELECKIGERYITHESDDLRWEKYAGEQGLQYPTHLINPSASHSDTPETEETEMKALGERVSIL
Briefly: in vitro kinase assay. The format is biochemical. On the procedure: The procedure for the in vitro kinase assay was modified from a previous report (Storz et al, 2003). Briefly, recombinant PKD1 (Upstate Biotechnology) was used as the source of enzyme in 20 μl of kinase buffer (50 mM Tris/HCl, pH 7.4, 10 mM MgCl2, 2 mM dithiothreitol). The kinase reaction was carried out for 30 min at room temperature after addition of 10 μl of kinase substrate mixture (150 μM substrate peptide, 50 μM ATP, 10 μCi of [γ-^32P]ATP in kinase buffer). A PKD1-specific substrate (Santa Cruz Biotechnology) was employed as a positive control. […] The reactions were terminated by adding 100 μl of 0.75% H3PO4, and 30 μl of the mixed supernatant was spotted to P-81 phosphocellulose paper (Whatman) in triplicates. Papers were washed thoroughly three times with 0.75% phosphoric acid, once with acetone, dried, and radioactivity incorporated into the synthetic peptide was determined in a scintillation counter. Endogenous PKD1 was immunoprecipitated with an anti-PKD1 antibody (SC-935; Santa Cruz) from 786-O cells lysed in a buffer containing 137 mM NaCl, 20 mM Tris (pH 7.5), 1 mM EGTA, 1 mM EDTA, 10% (v/v) glycerol, 1% (v/v) Nonidet P-40, 1 mM vanadate, and protease inhibitor cocktail (Roche). The immune complexes were washed three times with TBS (50 mM Tris/HCl, pH 7.4, 150 mM NaCl) and subjected to in vitro kinase assays.

Series [5] relates to NBS1. In words: NBS1 mRNA levels by real-time PCR in HCT116 cells. The format is cell-based, human. The following applies: adenovirus infection 16 h. On the procedure:
HCT116 TP53^+/+, HCT116 TP53^−/− cells (Koshiji et al., 2004), and U-2 OS were grown in McCoy's 5A medium (Invitrogen), and HeLa cells in DMEM. For hypoxic treatment, cells were incubated in a hypoxic chamber (Innova CO-48, New Brunswick Scientific) maintaining 1% O2 and 5% CO2. Recombinant adenovirus generation and infection were as previously described (Koshiji et al., 2004).
Total RNA extraction, reverse transcription, and quantitative PCR were performed essentially as described previously (Koshiji et al., 2005). Taqman Gene Expression Assay kits for NBS1, MRE11A, RAD50, MSH2, and ACTB were purchased from Applied Biosystems. All experiments were repeated three times in triplicates, and representative results were presented as means±standard errors.
A general note: Real-time PCR tracks product formation cycle by cycle.

Series [6] deals with synthetic peptide including HIF-2α residues 314-331.

This note sets out measurements from patent US20100074897A1, “Methods and Compositions related to HIF-1 alpha” (University of Utah Research Foundation, priority 2006, published 2010).

T1 sequence (G1SL61 1-788): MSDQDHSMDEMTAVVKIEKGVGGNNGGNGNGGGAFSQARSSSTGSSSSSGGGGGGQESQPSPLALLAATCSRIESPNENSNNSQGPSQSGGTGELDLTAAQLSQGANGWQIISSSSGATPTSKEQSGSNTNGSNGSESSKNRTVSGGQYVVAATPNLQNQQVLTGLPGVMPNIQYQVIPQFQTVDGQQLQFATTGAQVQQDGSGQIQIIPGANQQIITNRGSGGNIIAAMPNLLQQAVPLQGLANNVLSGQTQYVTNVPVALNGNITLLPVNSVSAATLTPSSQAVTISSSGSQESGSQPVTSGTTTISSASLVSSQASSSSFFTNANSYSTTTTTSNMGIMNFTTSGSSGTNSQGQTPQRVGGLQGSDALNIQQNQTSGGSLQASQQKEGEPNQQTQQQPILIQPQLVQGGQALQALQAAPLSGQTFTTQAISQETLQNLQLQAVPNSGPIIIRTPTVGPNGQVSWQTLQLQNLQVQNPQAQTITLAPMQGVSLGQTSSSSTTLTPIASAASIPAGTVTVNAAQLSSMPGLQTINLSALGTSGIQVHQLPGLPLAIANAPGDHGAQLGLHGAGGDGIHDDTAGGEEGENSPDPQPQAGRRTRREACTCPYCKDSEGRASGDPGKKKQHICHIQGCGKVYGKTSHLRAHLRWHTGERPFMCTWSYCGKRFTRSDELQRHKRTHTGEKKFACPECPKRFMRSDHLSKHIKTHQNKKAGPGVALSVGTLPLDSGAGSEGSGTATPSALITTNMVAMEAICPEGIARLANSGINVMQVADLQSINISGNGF

As to PAS1B T322V: PAS1B with T322V mutation, the Sp1 binding entry with Sp1 [1] is listed as “maintained PAS1B activity”.
As for “PAS2B T324V: PAS2B with Thr-324 mutated to valine”, the “γ-H2AX foci colocalized with 53BP1” value with U-2 OS cells (U-2 OS cells transiently expressing PAS-B variants) is given as “significantly increased”. The NBS1 protein levels entry with NBS1 [2] is reported as “gained its ability to inhibit NBS1 protein levels”. Moreover, the Sp1 binding result in the series with Sp1 [1] is “established binding”.
Take `CC(=O)N(O)CCCCCNC(=O)CCC(=O)N(O)CCCCCNC(=O)CCC(=O)N(O)CCCCCN` [Desferrioxamine, reference compound]: the “intensified γ-H2AX foci” value in the series with U-2 OS cells (U-2 OS cells treated with desferrioxamine, versus hypoxia) is “much greater increase”. Further, the “γ-H2AX foci per cell, Mean” value with U-2 OS cells (U-2 OS cells, desferrioxamine conditions for 72 h) is 40.62 foci per cell.
On to PAS2B: HIF-2α PAS-B (codons 195-331), for which the Sp1 binding result was “no Sp1 binding was detected” in the series with Sp1 [3], “regained binding” in the series with Sp1 [4] and “neither full-length HIF-2α nor PAS2B exhibited Sp1-binding activity” with Sp1 [1]. Besides, the “competition with PAS1B for Sp1 binding” value with Sp1 [1] is listed as “neither PAS2B nor the PAS1B T327P mutant was able to compete”.
On to `Oc1ccc(C=Cc2cc(O)cc(O)c2)cc1` [resveratrol, reference compound], for which, in the series on Sp1 [3] (HeLa cells expressing PAS2B treated with 5 nM of resveratrol), the PAS2B-Sp1 immunoprecipitated complexes entry was “yielded PAS2B-Sp1 immunoprecipitated complexes”. In addition, the “PKD1-mediated phosphorylation of consensus substrate peptide and HIF-2α peptide” value on recombinant PKD1 (recombinant PKD1 preincubated with resveratrol (100 μM) for 10 min) is reported as “abrogated”. Besides, the “Sp1 binding of PAS2B” value with Sp1 [4] (100 μM during synthesis of PAS2B in rabbit reticulocyte lysate) is given as “established Sp1 binding”.
Take “PAS1B T327P: PAS1B with Thr-327 replaced by the HIF-2α residue proline”: in the series with Sp1 [4], the Sp1 binding result is “regained binding”. Further, in the series with Sp1 [1], the “competition with PAS1B for Sp1 binding” value was “neither PAS2B nor the PAS1B T327P mutant was able to compete” and the Sp1 binding entry is “lost Sp1 binding”.
On to “Ac-YGRKKRRQRRRGGGVWLETQGTVIYNPRN L-NH2 [HIF-2α peptide]”, for which, at recombinant PKD1 (150 μM substrate peptide, 30 min, room temperature), the “phosphorylation of peptide substrate by recombinant PKD1” value is given as “robustly phosphorylated”.
Regarding “PAS1B T322E: PAS1B mutant mimicking phosphorylation at Thr-322 with glutamic acid substitution”, in the series with NBS1 [2], the NBS1 protein levels entry is on record as “failed to do so”. In the series with Sp1 [1], the Sp1 binding entry was “lost Sp1 binding”.
Consider “HIF-2α: full-length HIF-2α, a close member of the HIF-α family”, for which the Sp1 binding result in the series with Sp1 [3] is reported as “no Sp1 binding was detected”; in the series with Sp1 [1], “neither full-length HIF-2α nor PAS2B exhibited Sp1-binding activity”. In addition, the NBS1 repression entry with NBS1 [5] is “no inhibition”.

B1: endogenous PKD1 immunoprecipitated from 786-O cells (protein)
chain: T2 sequence (Q15139 1-912)
Regarding B1, the “in vitro kinase assay with immunoprecipitated endogenous PKD1 and synthetic peptides” value in series [6] was “endogenous PKD1 immunoprecipitated from 786-O cells specifically phosphorylated HIF-2α at Thr-324”.
